Assay results reported in patent US20240327407A1, “NOVEL INHIBITORS OF AUTOTAXIN” (CADILA HEAL THCARE LIMITED, priority 2021, published 2024).
pIC50: −log10 of the molar value.

Target: ATX (Mus musculus (Mouse), UniProt Q9R1E6)
Assay: Mice serum ATX inhibitory activity (IC50 determination)
Format: biochemical
Experimental: ATX Inhibitory activity was determined in a biochemical or whole blood assay as described previously (Bretschneider, T. et al., SLAS Discov 2017, 22, 425). The biochemical reaction consisted of 50 mM Tris (pH 8.0), 3 mM KCl, 1 mM CaCl2, 1 mM Mg Cl2, […] NaCl and 0.1% bovine serum albumin, which was supplemented with 5 nM recombinant rat ATX, 5 μM 18:1 LPC and the test compound (0.1-10 μM). The reaction was stopped at 2 h by the addition of butanol, prior to the RapidFire-MS-based analysis.
The whole blood assay consisted of 45 μL μL heparinized mice/rat whole blood and the test compound (0.12-100 μM). The reaction was stopped after 1 h at 37° C. by addition of 100 μL 40 mM disodium hydrogen phosphate buffer containing 30 mM citric acid (pH 4) and 1 μM 17:0 LPA (internal standard). Afterwards the samples were treated a described above and analysed by LC-MS/MS. The data was analyzed using graph pad prism (v 7.03) to arrive at the half-maximal inhibitory concentrations (IC50) of the test compounds.

**Q.** How did the pIC50 turn out when CC(C)[C@@H](NC(=O)c1cc(C(F)(F)F)ccc1F)C(=O)N1CCC2(CC1)C(=O)N(C)CC2c1ccc(F)cc1 (stereo partly drawn) [Compound 103, 2-fluoro-N-((2R)-1-(4-(4-fluorophenyl)-2-methyl-1-oxo-2,8-diazaspiro[4.5]decan-8-yl)-3-methyl-1-oxobutan-2-yl)-5-(trifluoromethyl)benzamide] was run?
**A.** The pIC50 was 8.16.

**Q.** With CCN1CC(c2ccc(F)cc2)C2(CCN(C(=O)[C@H](NC(=O)c3cc(C(F)(F)F)ccc3F)C(C)C)CC2)C1=O (stereo partly drawn) [Compound 104, N-((2R)-1-(2-ethyl-4-(4-fluorophenyl)-1-oxo-2,8-diazaspiro[4.5]decan-8-yl)-3-methyl-1-oxobutan-2-yl)-2-fluoro-5-(trifluoromethyl)benzamide] as the molecule, how does the pIC50 read?
**A.** Its pIC50 is 7.93.

**Q.** COc1ccc(F)c(C(=O)N[C@@H](C(=O)N2CCC3(CC2)C(=O)N(C)CC3c2ccccc2)C(C)C)c1 (stereo partly drawn) [Compound 105, 2-fluoro-5-methoxy-N-((2R)-3-methyl-1-(2-methyl-1-oxo-4-phenyl-2,8-diazaspiro[4.5]decan-8-yl)-1-oxobutan-2-yl)benzamide] was tested. Which pIC50 did it give?
**A.** Its pIC50 is 7.59.

**Q.** CC(C)[C@@H](NC(=O)c1cc(C(F)(F)F)ccc1F)C(=O)N1CCC2(CC1)C(=O)N(C)C=C2c1ccccc1 [Compound 106, (R)-2-fluoro-N-(3-methyl-1-(2-methyl-1-oxo-4-phenyl-2,8-diazaspiro[4.5]dec-3-en-8-yl)-1-oxobutan-2-yl)-5-(trifluoromethyl)benzamide] was tested. Which pIC50 did it give?
**A.** The pIC50 was 7.25.

**Q.** With CC(C)[C@@H](NC(=O)c1ccccc1F)C(=O)N1CCC2(CC1)C(=O)N(C)CC2c1ccccc1 (stereo partly drawn) [Compound 107, 2-fluoro-N-((2R)-3-methyl-1-(2-methyl-1-oxo-4-phenyl-2,8-diazaspiro[4.5]decan-8-yl)-1-oxobutan-2-yl)benzamide] as the molecule, how does the pIC50 read?
**A.** Its pIC50 is 7.18.

**Q.** How did the pIC50 turn out when CC(C)[C@@H](NC(=O)c1cccc(C(F)(F)F)c1)C(=O)N1CCC2(CC1)C(=O)N(C)CC2c1ccccc1 (stereo partly drawn) [Compound 108, N-((2R)-3-methyl-1-(2-methyl-1-oxo-4-phenyl-2,8-diazaspiro[4.5]decan-8-yl)-1-oxobutan-2-yl)-3-(trifluoromethyl)benzamide] was run?
**A.** Its pIC50 is 7.79.

**Q.** CC(C)[C@@H](NC(=O)c1cc(OC(F)(F)F)ccc1F)C(=O)N1CCC2(CC1)C(=O)N(C)CC2c1ccccc1 (stereo partly drawn) [Compound 110, 2-fluoro-N-((2R)-3-methyl-1-(2-methyl-1-oxo-4-phenyl-2,8-diazaspiro[4.5]decan-8-yl)-1-oxobutan-2-yl)-5-(trifluoromethoxy)benzamide] was tested. Which pIC50 did it give?
**A.** Its pIC50 is 8.42.

**Q.** How did the pIC50 turn out when CC(C)[C@@H](NC(=O)c1cc(C(F)(F)F)ccc1F)C(=O)N1CCC2(CC1)C(=O)N(C(C)C)CC2c1ccc(F)cc1 (stereo partly drawn) [Compound 111, 2-fluoro-N-((2R)-1-(4-(4-fluorophenyl)-2-isopropyl-1-oxo-2,8-diazaspiro[4.5]decan-8-yl)-3-methyl-1-oxobutan-2-yl)-5-(trifluoromethyl)benzamide] was run?
**A.** Its pIC50 is 7.47.

**Q.** CC(C)[C@@H](NC(=O)c1cc(C(F)(F)F)ccc1F)C(=O)N1CCC2(CC1)C(=O)N(CC1CC1)CC2c1ccc(F)cc1 (stereo partly drawn) [Compound 112, N-((2R)-1-(2-(cyclopropylmethyl)-4-(4-fluorophenyl)-1-oxo-2,8-diazaspiro[4.5]decan-8-yl)-3-methyl-1-oxobutan-2-yl)-2-fluoro-5-(trifluoromethyl)benzamide] was tested. Which pIC50 did it give?
**A.** Its pIC50 is 7.13.

**Q.** With CC(C)[C@@H](NC(=O)c1cc(C(F)(F)F)ccc1F)C(=O)N1CCC2(CC1)C(=O)N(CC1CC1)CC2c1cccnc1 (stereo partly drawn) [Compound 113, N-((2R)-1-(2-(cyclopropylmethyl)-1-oxo-4-(pyridin-3-yl)-2,8-diazaspiro[4.5]decan-8-yl)-3-methyl-1-oxobutan-2-yl)-2-fluoro-5-(trifluoromethyl)benzamide] as the molecule, how does the pIC50 read?
**A.** The pIC50 was 6.99.

**Q.** COc1ccc(C2CN(C)C(=O)C23CCN(C(=O)[C@H](NC(=O)c2cc(C(F)(F)F)ccc2F)C(C)C)CC3)cc1 (stereo partly drawn) [Compound 114, 2-fluoro-N-((2R)-1-(4-(4-methoxyphenyl)-2-methyl-1-oxo-2,8-diazaspiro[4.5]decan-8-yl)-3-methyl-1-oxobutan-2-yl)-5-(trifluoromethyl)benzamide] was tested. Which pIC50 did it give?
**A.** Its pIC50 is 8.77.

**Q.** With CC(C)[C@@H](NC(=O)c1cc(C(F)(F)F)ccc1F)C(=O)N1CCC2(CC1)OC(=O)NC2c1ccccc1 (stereo partly drawn) [Compound 115, 2-fluoro-N-((2R)-3-methyl-1-oxo-1-(2-oxo-4-phenyl-1-oxa-3,8-diazaspiro[4.5]decan-8-yl)butan-2-yl)-5-(trifluoromethyl)benzamide] as the molecule, how does the pIC50 read?
**A.** The pIC50 was 7.13.

**Q.** CC(C)[C@@H](NC(=O)c1cc(C(F)(F)F)ccc1F)C(=O)N1CCC2(CC1)CN(C)CC2c1ccc(F)cc1 (stereo partly drawn) [Compound 119, 2-fluoro-N-((2R)-1-(4-(4-fluorophenyl)-2-methyl-2,8-diazaspiro[4.5]decan-8-yl)-3-methyl-1-oxobutan-2-yl)-5-(trifluoromethyl)benzamide] was tested. Which pIC50 did it give?
**A.** Its pIC50 is 8.15.

**Q.** CC(C)[C@@H](NC(=O)c1cc(C(F)(F)F)ccc1F)C(=O)N1CCC2(CC1)CN(C(C)C)CC2c1ccc(F)cc1 (stereo partly drawn) [Compound 120, 2-fluoro-N-((2R)-1-(4-(4-fluorophenyl)-2-isopropyl-2,8-diazaspiro[4.5]decan-8-yl)-3-methyl-1-oxobutan-2-yl)-5-(trifluoromethyl)benzamide] was tested. Which pIC50 did it give?
**A.** The pIC50 was 7.35.

**Q.** With CC(C)[C@@H](NC(=O)c1cc(C(F)(F)F)ccc1F)C(=O)N1CCC2(CC1)CN(CC1CC1)CC2c1ccc(F)cc1 (stereo partly drawn) [Compound 121, N-((2R)-1-(2-(cyclopropylmethyl)-4-(4-fluorophenyl)-2,8-diazaspiro[4.5]decan-8-yl)-3-methyl-1-oxobutan-2-yl)-2-fluoro-5-(trifluoromethyl)benzamide] as the molecule, how does the pIC50 read?
**A.** The pIC50 was 7.07.

**Q.** COc1ccc(C2CN(C)CC23CCN(C(=O)[C@H](NC(=O)c2cc(C)ccc2F)C(C)C)CC3)cc1 (stereo partly drawn) [Compound 123, 2-fluoro-N-((2R)-1-(4-(4-methoxyphenyl)-2-methyl-2,8-diazaspiro[4.5]decan-8-yl)-3-methyl-1-oxobutan-2-yl)-5-methylbenzamide] was tested. Which pIC50 did it give?
**A.** Its pIC50 is 8.03.

**Q.** With Cc1ccnc(C(=O)N[C@@H](C(=O)N2CCC3(CC2)CN(C)CC3c2ccc(F)cc2)C(C)C)c1 (stereo partly drawn) [Compound 129, N-((2R)-1-(4-(4-fluorophenyl)-2-methyl-2,8-diazaspiro-[4.5]decan-8-yl)-3-methyl-1-oxobutan-2-yl)-4-methylpicolinamide] as the molecule, how does the pIC50 read?
**A.** The pIC50 was 8.47.

**Q.** COC(=O)N1CC(c2ccc(F)cc2)C2(CCN(C(=O)[C@H](NC(=O)c3cc(C(F)(F)F)ccc3F)C(C)C)CC2)C1 (stereo partly drawn) [Compound 130, methyl 8-((2-fluoro-5-(trifluoromethyl)benzoyl)-D-valyl)-4-(4-fluorophenyl)-2,8-diazaspiro[4.5]decane-2-carboxylate] was tested. Which pIC50 did it give?
**A.** Its pIC50 is 7.22.

**Q.** How did the pIC50 turn out when CCOC(=O)N1CC(c2ccc(F)cc2)C2(CCN(C(=O)[C@H](NC(=O)c3cc(C(F)(F)F)ccc3F)C(C)C)CC2)C1 (stereo partly drawn) [Compound 131, ethyl 8-((2-fluoro-5-(trifluoromethyl)benzoyl)-D-valyl)-4-(4-fluorophenyl)-2,8-diazaspiro[4.5]decane-2-carboxylate] was run?
**A.** Its pIC50 is 6.82.

**Q.** With CC(C)[C@@H](NC(=O)c1cc(C(F)(F)F)ccc1F)C(=O)N1CCC2(CC1)CN(C)CC2c1ccc(C(=O)O)cc1 (stereo partly drawn) [Compound 132, 4-(8-((2-fluoro-5-(trifluoromethyl)benzoyl)-D-valyl)-2-methyl-2,8-diazaspiro[4.5]decan-4-yl)benzoic acid] as the molecule, how does the pIC50 read?
**A.** The pIC50 was 8.96.

**Q.** CC(C)[C@@H](NC(=O)c1cc(C(F)(F)F)ccc1F)C(=O)N1CCC2(CC1)CN(C)C[C@@H]2c1ccc(F)cc1 [Compound 133, 2-fluoro-N-((R)-1-((R)-4-(4-fluorophenyl)-2-methyl-2,8-diazaspiro[4.5]decan-8-yl)-3-methyl-1-oxobutan-2-yl)-5-(trifluoromethyl)benzamide] was tested. Which pIC50 did it give?
**A.** Its pIC50 is 7.92.

**Q.** With CC(C)[C@@H](NC(=O)c1cc(C(F)(F)F)ccc1F)C(=O)N1CCC2(CC1)CN(C)C[C@H]2c1ccc(F)cc1 [Compound 134, 2-fluoro-N-((R)-1-((S)-4-(4-fluorophenyl)-2-methyl-2,8-diazaspiro[4.5]decan-8-yl)-3-methyl-1-oxobutan-2-yl)-5-(trifluoromethyl)benzamide] as the molecule, how does the pIC50 read?
**A.** Its pIC50 is 8.11.

**Q.** How did the pIC50 turn out when Cc1ccc(C2CN(C)CC23CCN(C(=O)[C@H](NC(=O)c2cc(C(F)(F)F)ccc2F)C(C)C)CC3)cc1 (stereo partly drawn) [Compound 136, 2-fluoro-N-((2R)-3-methyl-1-(2-methyl-4-(p-tolyl)-2,8-diazaspiro[4.5]decan-8-yl)-1-oxobutan-2-yl)-5-(trifluoromethyl)benzamide] was run?
**A.** Its pIC50 is 8.66.

**Q.** With Cc1cc(C)cc(C2CN(C)CC23CCN(C(=O)[C@H](NC(=O)c2cc(C(F)(F)F)ccc2F)C(C)C)CC3)c1 (stereo partly drawn) [Compound 138, N-((2R)-1-(4-(3,5-dimethylphenyl)-2-methyl-2,8-diazaspiro[4.5]decan-8-yl)-3-methyl-1-oxobutan-2-yl)-2-fluoro-5-(trifluoromethyl)benzamide] as the molecule, how does the pIC50 read?
**A.** The pIC50 was 7.39.

**Q.** With CN1CC(c2ccc(F)cc2)C2(CCN(C(=O)[C@H](NC(=O)c3cc(C(F)(F)F)ccc3F)c3ccccc3)CC2)C1 (stereo partly drawn) [Compound 140, 2-fluoro-N-((1R)-2-(4-(4-fluorophenyl)-2-methyl-2,8-diazaspiro[4.5]decan-8-yl)-2-oxo-1-phenylethyl)-5-(trifluoromethyl)benzamide] as the molecule, how does the pIC50 read?
**A.** The pIC50 was 7.94.

**Q.** CN1CC(c2ccc(F)cc2)C2(CCN(C(=O)[C@H](NC(=O)c3cc(C(F)(F)F)ccc3F)C3CCCCC3)CC2)C1 (stereo partly drawn) [Compound 142, N-((1R)-1-cyclohexyl-2-(4-(4-fluorophenyl)-2-methyl-2,8-diazaspiro[4.5]decan-8-yl)-2-oxoethyl)-2-fluoro-5-(trifluoromethyl)benzamide] was tested. Which pIC50 did it give?
**A.** The pIC50 was 8.36.
